Assay results from patent US6403363B1, “Method of preservation of vaccines with polybiguanide” (priority 1997, dated 2002).
Like-named read-outs stand apart in the source and are kept apart here.

Experiments:
seed virus grown in eggs = test system: seed virus grown in eggs; design: species or system influenza virus
[1] = Visible effect of preservative on allantoic fluid; format: physicochemical; conditions: preservative 0.1%
Excerpt: The preserved samples were also examined to determine the visible effect on allantoic fluid, and the results are shown in Table 4 below.

C[CH2][Hg][S]c1ccccc1C(=O)[O-].[Na+] [thiomersal, sodium ethylmercurithiosalicylate]
Log egg infective doses/ml (seed virus grown in eggs; virus seed + 0.01% preservative): 8.2

O=[N+]([O-])C(Br)(CO)CO [Nipaguard BNPD]
Effect on allantoic fluid (visible) [1]: No effect

O=[N+]([O-])C(Br)(CO)CO [bronopol, 2-bromo-2-nitropropan-1,2-diol]
Infectivities (summary) (seed virus grown in eggs; 0.1% preservative): Unsatisfactory | effect on egg infectivities (seed virus grown in eggs; compared with Cosmocil CQ and thiomersal, 0.1% bronopol, 0.4% Biopure): pronounced negative effect | Log egg infective doses/ml (seed virus grown in eggs; virus seed + 0.1% preservative): <5.4 log egg infective doses/ml
